According to patent publication US20230192701A1, “BICYCLIC KINASE INHIBITORS AND USES THEREOF” (iOmx Therapeutics AG, priority 2020, published 2023):

How the values were obtained:
[1] = Human liver microsomal stability; format: in vitro ADME; settings: pH 7.4; human liver microsomes, NADPH, 37°C
Procedure: Briefly, human and liver microsomal stability was determined by pre-incubation of 2.5 uL compound and 75 uL of the respective liver microsomes in potassium phosphate buffer (pH 7.4) at 37° C. After adding of NADPH as cofactor and further incubation at 37° C. for 60 min, acetonitrile containing internal standard was added, and the sample was vortexed for 5 min at 1200 rpm and then centrifuged 10 min at 4000 rpm.
(§1) LC-MS/MS was performed for all assays using a C18 column (50*4.6 mm, 5 um) for the CaCo2 assay, or a C18 column (50*4.6 mm, 4 um) for the other assays. The mobile phases used were 10 mM Ammonium Acetate with 0.1% Formic acid (aqueous) and 100% Acetonitrile (organic).

[2] = Human hepatocyte stability; format: in vitro ADME; settings: human hepatocytes, 37°C
Procedure: (§2) Determination of human and mice hepatocyte stability was conducted as follows. 200 uL of the respective hepatocyte cell suspension (2×10e6/ml) was preincubated at 37° C. for 10 min. Then, 200 uL of a 2 uM working stock of the test compound was added to the hepatocyte cell suspension, and the mixture was further incubated at 37° C. and 500 rpm. The reaction was stopped at 30, 60 and 120 min by precipitating 50 uL of the incubation mixture with 200 uL of acetonitrile. Samples were vortexed for 5 min at 1200 rpm and centrifuged at 4000 rpm for 10 min. Intrinsic clearance and half-life were analysed using LC-MS/MS.
as §1

[3] = biological target: SIK2 (Homo sapiens, UniProt Q9H0K1); experiment: radiometric protein kinase assay (33PanQinase Activity Assay), SIK2; format: biochemical; settings: ATP 1.0 μM, substrate RBER-CHKtide
Sequence of SIK2 (Q9H0K1 whole entry): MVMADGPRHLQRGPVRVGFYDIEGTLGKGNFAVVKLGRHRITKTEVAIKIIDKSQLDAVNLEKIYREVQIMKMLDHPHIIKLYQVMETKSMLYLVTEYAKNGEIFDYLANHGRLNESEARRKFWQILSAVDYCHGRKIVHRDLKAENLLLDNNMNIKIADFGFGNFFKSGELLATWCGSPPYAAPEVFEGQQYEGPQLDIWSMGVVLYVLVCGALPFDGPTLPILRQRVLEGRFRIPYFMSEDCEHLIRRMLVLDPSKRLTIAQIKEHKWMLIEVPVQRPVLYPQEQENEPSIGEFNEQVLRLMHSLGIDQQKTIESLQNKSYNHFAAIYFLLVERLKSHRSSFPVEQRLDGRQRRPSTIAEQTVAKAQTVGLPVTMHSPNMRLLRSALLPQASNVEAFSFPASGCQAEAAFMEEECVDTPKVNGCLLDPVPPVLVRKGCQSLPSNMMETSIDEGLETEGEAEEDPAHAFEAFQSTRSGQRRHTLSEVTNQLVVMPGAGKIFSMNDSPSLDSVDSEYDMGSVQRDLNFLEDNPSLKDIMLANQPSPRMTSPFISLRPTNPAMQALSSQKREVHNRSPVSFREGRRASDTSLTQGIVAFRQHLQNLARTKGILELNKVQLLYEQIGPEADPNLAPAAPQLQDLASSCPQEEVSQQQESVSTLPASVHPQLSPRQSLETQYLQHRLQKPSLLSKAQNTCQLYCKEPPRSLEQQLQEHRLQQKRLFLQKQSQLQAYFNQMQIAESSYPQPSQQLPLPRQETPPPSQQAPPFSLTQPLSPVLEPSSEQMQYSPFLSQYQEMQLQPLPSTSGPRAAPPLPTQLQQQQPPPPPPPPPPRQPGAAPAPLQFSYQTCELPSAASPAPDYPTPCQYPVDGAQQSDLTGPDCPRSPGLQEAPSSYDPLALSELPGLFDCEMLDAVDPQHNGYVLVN

[4] = biological target: SIK3 (Homo sapiens, UniProt Q9Y2K2); experiment: radiometric protein kinase assay (33PanQinase Activity Assay), SIK3; format: biochemical; settings: ATP 1.0 μM, substrate RBER-CHKtide
Sequence of SIK3 (Q9Y2K2 whole entry): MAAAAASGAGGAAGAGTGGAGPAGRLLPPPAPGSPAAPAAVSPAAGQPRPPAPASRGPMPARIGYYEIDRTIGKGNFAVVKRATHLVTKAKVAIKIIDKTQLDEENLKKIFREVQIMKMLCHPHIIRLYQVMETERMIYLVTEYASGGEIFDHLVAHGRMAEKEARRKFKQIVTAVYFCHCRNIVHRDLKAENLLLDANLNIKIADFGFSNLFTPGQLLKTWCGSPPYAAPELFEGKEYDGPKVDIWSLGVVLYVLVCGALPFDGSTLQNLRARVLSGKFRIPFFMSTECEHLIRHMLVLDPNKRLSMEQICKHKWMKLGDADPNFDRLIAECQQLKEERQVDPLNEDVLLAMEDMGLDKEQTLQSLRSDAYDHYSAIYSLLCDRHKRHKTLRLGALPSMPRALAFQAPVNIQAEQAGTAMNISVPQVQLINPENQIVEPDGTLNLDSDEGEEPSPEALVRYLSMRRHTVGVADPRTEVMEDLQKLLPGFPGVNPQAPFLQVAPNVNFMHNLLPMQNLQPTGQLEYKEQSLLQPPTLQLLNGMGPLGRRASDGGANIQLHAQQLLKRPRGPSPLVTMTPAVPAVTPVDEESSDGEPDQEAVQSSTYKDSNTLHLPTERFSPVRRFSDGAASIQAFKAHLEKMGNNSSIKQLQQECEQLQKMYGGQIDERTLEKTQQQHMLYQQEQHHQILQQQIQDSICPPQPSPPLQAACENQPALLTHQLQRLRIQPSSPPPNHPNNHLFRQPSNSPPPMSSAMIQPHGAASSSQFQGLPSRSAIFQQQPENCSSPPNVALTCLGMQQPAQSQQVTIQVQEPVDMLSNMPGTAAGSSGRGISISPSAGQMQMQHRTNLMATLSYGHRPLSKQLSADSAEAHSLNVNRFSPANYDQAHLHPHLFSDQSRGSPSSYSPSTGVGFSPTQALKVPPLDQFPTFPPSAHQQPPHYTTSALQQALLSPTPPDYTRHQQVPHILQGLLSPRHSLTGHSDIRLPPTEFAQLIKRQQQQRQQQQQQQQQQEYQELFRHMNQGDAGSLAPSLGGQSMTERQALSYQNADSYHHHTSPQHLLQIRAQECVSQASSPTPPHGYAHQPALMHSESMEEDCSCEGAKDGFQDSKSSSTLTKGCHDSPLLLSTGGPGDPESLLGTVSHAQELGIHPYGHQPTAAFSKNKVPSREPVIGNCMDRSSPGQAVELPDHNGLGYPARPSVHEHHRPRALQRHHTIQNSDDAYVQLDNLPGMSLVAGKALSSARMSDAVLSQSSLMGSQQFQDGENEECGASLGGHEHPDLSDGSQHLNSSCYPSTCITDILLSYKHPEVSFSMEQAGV

[5] = Mouse hepatocyte stability; format: in vitro ADME; settings: mouse hepatocytes, 37°C
Procedure: as §2, §1

[6] = system: MC38 tumour cells; experiment: TNF-sensitised cell viability assay (CellTiter-Glo), MC38; format: cell-based, murine; settings: Mus musculus, MC-38, read-out: MC38 IC50 (at 100 ng/ml rMuTNF); 100 ng/ml rMuTNF, 72 h

Work on `COc1ccc(N2C(=O)N(c3c(C)csc3Cl)Cc3cnc(Nc4ccc(C5CCN(C)CC5)cc4OC)nc32)nc1` [AA1, 3-(2-chloro-4-methylthiophen-3-yl)-7-((2-methoxy-4-(1-methylpiperidin-4-yl)phenyl)amino)-l-(5-methoxypyridin-2-yl)-3,4-dihydropyrimido[4,5-d]pyrimidin-2(1H)-one] yielded a half-life [1] of 0.3 h, a half-life at 1 uM [2] of 11 h and an IC50 [3] of 100 to 200 nM. For the same molecule, the IC50 [4] was 200 to 400 nM, the half-life at 1 uM [5] was 1.73 h and the IC50 [6] was 1 to 1.5 µM.
